What all share (format): physicochemical
The nature of data set [1]: Stability and moisture absorption: storage at 85% and 97% rel. humidity, evaluated by DSC, TGA and XRPD. To be noted: for mass change: after 12 months. Here is the method:
Stability and Moisture Absorption Samples of compound of the formula (I) in crystalline form of polymorph I were stored at 85% and 97% rel. humidity (25° C.). The samples were evaluated after 12 months by DSC, TGA and XRPD. After 12 months, a mass change of <0.1% is observed in both cases. […] According to DSC, TGA and XRPD, no difference exists in compound of the formula (I) in crystalline form of polymorph I.
In general terms: DSC measures the heat that a sample takes up or gives off during a temperature scan.

Data set [2] can be described thus: Storage stability of polymorph I.
The nature of data set [3]: TGA, loss of mass on heating. The settings on record: up to a temperature of 175° C. Here is the method: No other phase transitions were observed. A loss of mass of ca. 0.1% was observed up to a temperature of 175° C.
Setting [4] is: 85% and 97% rel. humidity (25° C.), 12 months.

Where only a bound is given, the exact number is not on record here.

Take `CCOc1ncc(C)c2c1[C@H](c1ccc(C#N)cc1OC)C(C(N)=O)=C(C)N2` [(4S)-4-(4-cyano-2-methoxyphenyl)-5-ethoxy-2,8-dimethyl-1,4-dihydro-1,6-naphthyridine-3-carboxamide]: in data set [1] (setting [4]), the absorption of water entry is “no significant absorption of water”; the “difference according to DSC, TGA and XRPD after storage” value is recorded as “no difference”. Besides, the mass change in data set [1] (stored at 85% rel. humidity (25° C.)) is less than 0.1%. The compound further yielded a mass change in data set [1] (stored at 97% rel. humidity (25° C.)) of less than 0.1%. The stability properties result in data set [2] (even at high atmospheric humidity) is given as “very good stability properties”. The “storage time without any problem” value in data set [2] (solid, crystalline polymorph I) is greater than 2 years. For the same compound, the loss of mass entry in data set [3] is given as “ca. 0.1%”.

The values are drawn from patent publication USRE49575E1, “Method for the preparation of (4S)-4-(4-cyano-2-methoxyphenyl)-5-ethoxy-2,8-dimethyl-l,4-dihydro-1-6-naphthyridine-3-carbox-amide and the purification thereof for use as an active pharmaceutical ingredient” (Bayer Pharma Aktiengesellschaft, priority 2014, dated 2023).
